Drawing on ChEMBL document CHEMBL1156375, “Isolation and structure determination of novamethymycin, a new bioactive metabolite of the methymycin biosynthetic pathway in Streptomyces venezuelae” (2001), this text covers zone of inhibition for four molecules.

The subject of the assay is Bacillus subtilis. The experiment in a line: Antibacterial activity against Bacillus subtilis ATCC 6633 at 100 ug/disk after 10 hrs by disk diffusion assay. The assay is classed as functional. The settings on record: ATCC 6633, 10 h, read-out: DIZ.
With `CC[C@H]1OC(=O)[C@H](C)[C@@H](O[C@@H]2O[C@H](C)C[C@H](N(C)C)[C@H]2O)[C@@H](C)C[C@@H](C)C(=O)/C=C/[C@H]1C`, the zone of inhibition at 100 µg/disc is 16 mm. As for `CC[C@H]1OC(=O)[C@H](C)[C@@H](O[C@@H]2O[C@H](C)C[C@H](N(C)C)[C@H]2O)[C@@H](C)C[C@@H](C)C(=O)/C=C/[C@]1(C)O` [METHYMYCIN], the zone of inhibition at 100 µg/disc was 18 mm.

As to `C[C@@H]1C[C@H](N(C)C)[C@@H](O)[C@H](O[C@H]2[C@@H](C)C[C@@H](C)C(=O)/C=C/[C@@H](C)[C@@H]([C@@H](C)O)OC(=O)[C@@H]2C)O1` [NEOMETHYMYCIN], the zone of inhibition at 100 µg/disc came to 20 mm. The result for `C[C@@H]1C[C@H](N(C)C)[C@@H](O)[C@H](O[C@H]2[C@@H](C)C[C@@H](C)C(=O)/C=C/[C@](C)(O)[C@@H]([C@@H](C)O)OC(=O)[C@@H]2C)O1` [NOVAMETHYMYCIN] reads 18 mm.
